In patent US12398110B2, “Second generation inhibitors of mitochondrial permeability transition pore with improved plasma stability” (Oregon Health & Science University, priority 2019, dated 2025):

What was measured:
mtPTP = experiment: Chemical activator (PhAsO, Diamide, Cu(OP)2, NEM) induced mitochondrial swelling; assay type: biochemical, mouse; conditions: 1.5 μm compound, 10 μm Ca2+ plus PhAsO, Cu(OP)2 or NEM
Description: […] graphs compound TR001 prevention of chemical activation induced mitochondrial swelling. FIG. 3A-3D) mouse liver mitochondria (0.25 mg/mL) were treated with 10 μM Ca^2+ only (traces a); 10 μm Ca^2+ and after 2 min of incubation with: FIG. 3A) 7 μm PhAsO, FIG. 3B) 2 mm Diamide, FIG. 3C), 7 μm Cu(OP)2, FIG. 3D), 2 mm NEM (traces b-d). In traces c and d additions were as in traces b except that mitochondria were also treated with 1.5 μmCsA (traces c) or TR001 (traces d). Traces are representative of n=4 independent preparations.
Based on the SAR studies and mouse plasma stability data, we decided to move forward with TR001 for more extensive biological characterization. As noted above, mtPTP is triggered by elevated levels of matrix Ca^2+ and potentiated by oxidative stress, leading to mitochondrial swelling. We therefore next tested the ability of TR001 to protect from oxidizing agent-triggered mtPTP opening. For this purpose, we used known chemical activators of the mtPTP that react with two distinct classes of redox sensitive thiols (—SH) and increase the propensity of mtPTP opening. […]

[1] = tested on: col6a1 zebrafish morphants; experiment: OCR measurement on entire col6a1 morphant zebrafish embryos; assay type: in vivo; conditions: 48 hpf, 10 μm
Text: To test the effects of both TR001 and 63 on the respiration of col6a1 morphant embryos, we measured the OCR on entire embryos at 48 hpf. […] Moreover, TR001 at a concentration of 10 μm was able to fully restore the maximal respiratory capacity (FIG. 6D, left panel, open diamonds, p<0.001) of col6a1 morphants.
Morpholino antisense injection and treatment. Knock-down of col6a1 gene expression was obtained with a previously published morpholino ^[25] with sequence GAGAGCGGAAGACGAACCTTCATTC (SEQ ID NO: 2; GeneTools, Inc.). A control morpholino with no sequence homology in the zebrafish genome was used in parallel (CCTCTTACCTCAGTTACAATTTATA; SEQ ID NO: 3). Zebrafish eggs from wild-type matings were injected at the 1-2 cell stage with approximately 10 nL of 0.1 mm morpholino solution (corresponding to 4 ng of morpholino) using a WPI pneumatic PicoPump PV820 injector (World Precision Instruments, Inc.). […]
OCR measurement. […] First, basal respiration was measured. Second, respiration due to ATP synthase was measured after addition of 10 μm oligomycin (Merck Millipore-495455). Third, maximal respiration capacity was measured by adding 2 μm of the uncoupler carbonyl cyanide-4-(trifluoromethoxy)phenylhydrazone (FCCP, Sigma-Aldrich, C2920). […]

HeLa cells = experiment: HeLa cell viability assay; assay type: cell-based; conditions: up to 50 μm, 24 h treatment
Text: A thorough evaluation of toxicity is critical for advancing TR001 to in vivo studies. […] To more thoroughly examine mitochondrial toxicity, we analyzed oxygen consumption rates (OCRs) using the Seahorse XF24 extracellular flux analyzer. This allowed us to assess the effects of TR001 on mitochondrial respiration and ATP synthesis. […] Consequently respiratory control ratios (i.e., the ratios between ADP-stimulated and basal respiration) were not affected across the concentrations tested (FIG. 5B). Complex III inhibitor antimycin A shuts down the electron transport chain at the bc1 complex and was used to account for oxygen leak.
Cell viability assay. HeLa cells were seeded at a density of 10^4 per well in 96-well plates and let to adhere for 6 h before treatment with varying concentrations of TR001 or vehicle (1% DMSO. After treatment for 24 h the relative viable cell number was determined with a CellTiter 96 Aqueous One Solution Cell Proliferation Assay Kit (Promega).

`Cc1ccc(Cl)cc1NC(=O)c1cn(-c2ccc(F)c(O)c2)nn1` [TR001, N-(5-chloro-2-methylphenyl)-1-(4-fluoro-3-hydroxyphenyl)-1H-1,2,3-triazole-4-carboxamide] was tested, and the “effect on oxidizing agent-triggered mtPTP opening” value (mtPTP) was “delayed mtPTP opening”, the “maximal respiratory capacity (OCR) of col6a1 morphants” value [1] was “fully restore” and the HeLa cell viability (HeLa cells) was “did not exhibit any adverse effects”.
